Here are results for 23 compounds from US20230348487A1, “2-AMINOPYRIMIDINE COMPOUND AND PHARMACEUTICAL COMPOSITION THEREOF AND APPLICATION THEREOF” (GUANGZHOU SALUSTIER BIOSCIENCES CO., LTD., priority 2021, published 2023).

“And” between values parts separate entries of the source, which are not always exact repeats. Equal values may be shown once. Read-outs that look alike come from different tables or passages of the source.

The target of assay [1] is JAK2 (Homo sapiens (Human), UniProt O60674). Kind of assay: Z′-Lyte kinase inhibitory activity test. The class given is biochemical. The method, then:
(§1) Test method: Firstly, test compounds were prepared into 10 mM stock solution with DMSO, and continuously diluted into 10 concentrations at a 3-fold gradient for later use. 5X reaction buffer was diluted with deionized water into 1×reaction buffer (50 mM HEPES pH 7.5, 0.01% Brij-35, 10 mM MgCl2, 1 mM EGTA), which was used to prepare a mixture of kinase and peptide substrate, as well as a phosphorylated peptide substrate solution. The kinase concentration was determined based on enzyme titration, and the final concentration of peptide substrate and phosphorylated peptide substrate was 2 μM. 5 μL of mixture substrate of kinase and peptide substrate was added to each well on the 384 well plate. Then 5 nL of the test compound (starting with a final concentration of 10 μM) was added with an Echo520 Sampler. […] An additional 100% phosphorylation well (5 μL phosphorylated peptide substrate solution), a 0% phosphorylated well (5 μL of a mixture of kinase and peptide substrate, without test compounds and ATP), and a 0% inhibitory well (5 μL of a mixture of kinase and peptide substrate and appropriate concentration of ATP) were set as control. Two repeats were set for each concentration. The above reaction system was incubated at 30° C. for 1.5 hours. […] 2.5 μL of the diluted mixture was added to each well and the system was incubated at 30° C. for another 1 hour. […] The substrate phosphorylation rate was obtained by calculating the ratio, and the activity of the kinase and the effect of the inhibitor on the kinase was further calculated. Every experiment was repeated at least three times.

For assay [2], the target named is JAK3 (Homo sapiens (Human), UniProt P52333). Kind of assay: Z′-Lyte kinase inhibitory activity test. The assay is classed as biochemical. As to conditions: for JAK3 kinase inhibitory activity and selectivity (in words): summary of Table 3, activity maintained at ATP 1 mM. The method, then: as §1
JAK3, sequence (P52333 whole entry): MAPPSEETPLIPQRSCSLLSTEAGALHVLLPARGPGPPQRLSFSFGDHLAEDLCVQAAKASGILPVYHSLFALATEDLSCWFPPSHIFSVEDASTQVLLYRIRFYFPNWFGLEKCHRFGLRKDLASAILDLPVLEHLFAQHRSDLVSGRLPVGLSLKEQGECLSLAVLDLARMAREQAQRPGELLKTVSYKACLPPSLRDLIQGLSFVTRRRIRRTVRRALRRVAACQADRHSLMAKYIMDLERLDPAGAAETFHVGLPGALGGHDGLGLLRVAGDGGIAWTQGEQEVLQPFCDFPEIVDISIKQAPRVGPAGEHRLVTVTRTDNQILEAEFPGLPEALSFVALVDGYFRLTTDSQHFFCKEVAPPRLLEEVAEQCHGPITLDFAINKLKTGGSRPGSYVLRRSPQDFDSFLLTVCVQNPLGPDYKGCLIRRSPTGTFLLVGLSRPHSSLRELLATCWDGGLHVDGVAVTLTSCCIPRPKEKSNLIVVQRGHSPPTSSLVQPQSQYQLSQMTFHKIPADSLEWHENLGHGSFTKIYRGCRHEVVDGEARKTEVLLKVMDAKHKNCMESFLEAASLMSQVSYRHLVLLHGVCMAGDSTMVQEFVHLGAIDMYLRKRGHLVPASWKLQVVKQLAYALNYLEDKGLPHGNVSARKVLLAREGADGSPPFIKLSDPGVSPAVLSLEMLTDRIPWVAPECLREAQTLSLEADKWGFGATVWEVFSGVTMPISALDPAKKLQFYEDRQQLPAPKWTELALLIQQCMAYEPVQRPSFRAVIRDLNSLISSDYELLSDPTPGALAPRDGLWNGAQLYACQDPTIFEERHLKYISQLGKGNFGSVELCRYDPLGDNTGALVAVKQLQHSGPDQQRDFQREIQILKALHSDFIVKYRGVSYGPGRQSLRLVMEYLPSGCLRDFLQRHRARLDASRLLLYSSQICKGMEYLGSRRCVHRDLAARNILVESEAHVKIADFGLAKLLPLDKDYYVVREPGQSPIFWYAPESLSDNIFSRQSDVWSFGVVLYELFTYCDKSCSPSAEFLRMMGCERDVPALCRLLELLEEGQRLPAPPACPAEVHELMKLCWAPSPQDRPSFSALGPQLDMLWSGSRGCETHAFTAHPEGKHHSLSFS
The target in assay [3] is JAK1 (Homo sapiens (Human), UniProt P23458). Kind of assay: Z′-Lyte kinase inhibitory activity test. The class given is biochemical. As to conditions: ATP concentration Km. The method, then:
as §1

Assay [4] concerns the target TYK2 (Homo sapiens (Human), UniProt P29597). Kind of assay: Z′-Lyte kinase inhibitory activity test. The assay is classed as biochemical. Particulars: ATP concentration Km. The method, then:
as §1

In assay [5] the test system is human acute myeloid leukemia cell line U937. Kind of assay: CCK-8 in vitro proliferation inhibition. The assay is classed as cell-based. As to conditions: read-out: Inhibitory activity (IC50) on cell proliferation, U937. The method, then:
(§2) Cell lines: human chronic myeloid leukemia cell line K562, human acute myeloid leukemia cell line U937, human T lymphocyte leukemia cell line HuT78, and human T lymphoblastic lymphoma cell line Jurkat. Cells were purchased from the Chinese Academy of Sciences Stem Cell Bank or ATCC.
(§3) […] were cultured overnight and suspended cells were directly stimulated with drugs. […] Two repeats were set for each concentration, with a final volume of 200 μL. […] The absorbance values at 450 nm and 650 nm were measured using a microplate reader, and the increment Z (A450-A650) was derived. The inhibitory rate of drugs on cell growth was calculated by GraphPad Prism 8.0.0 through the following formula:
(§4) Inhibition rate (%)(ODcontrol−ODdosing)/ODcontrol×100%
(§5) The half inhibitory concentration (IC50) was calculated. Every experiment was repeated at least three times.

Assay [6] deals with human chronic myeloid leukemia cell line K562. The assay is described as follows: CCK-8 in vitro proliferation inhibition. The assay is classed as cell-based. As to conditions: read-out: Inhibitory activity (IC50) on cell proliferation, K562. The method, then: as §2, §3, §4, §5

TYK2, sequence (P29597 whole entry): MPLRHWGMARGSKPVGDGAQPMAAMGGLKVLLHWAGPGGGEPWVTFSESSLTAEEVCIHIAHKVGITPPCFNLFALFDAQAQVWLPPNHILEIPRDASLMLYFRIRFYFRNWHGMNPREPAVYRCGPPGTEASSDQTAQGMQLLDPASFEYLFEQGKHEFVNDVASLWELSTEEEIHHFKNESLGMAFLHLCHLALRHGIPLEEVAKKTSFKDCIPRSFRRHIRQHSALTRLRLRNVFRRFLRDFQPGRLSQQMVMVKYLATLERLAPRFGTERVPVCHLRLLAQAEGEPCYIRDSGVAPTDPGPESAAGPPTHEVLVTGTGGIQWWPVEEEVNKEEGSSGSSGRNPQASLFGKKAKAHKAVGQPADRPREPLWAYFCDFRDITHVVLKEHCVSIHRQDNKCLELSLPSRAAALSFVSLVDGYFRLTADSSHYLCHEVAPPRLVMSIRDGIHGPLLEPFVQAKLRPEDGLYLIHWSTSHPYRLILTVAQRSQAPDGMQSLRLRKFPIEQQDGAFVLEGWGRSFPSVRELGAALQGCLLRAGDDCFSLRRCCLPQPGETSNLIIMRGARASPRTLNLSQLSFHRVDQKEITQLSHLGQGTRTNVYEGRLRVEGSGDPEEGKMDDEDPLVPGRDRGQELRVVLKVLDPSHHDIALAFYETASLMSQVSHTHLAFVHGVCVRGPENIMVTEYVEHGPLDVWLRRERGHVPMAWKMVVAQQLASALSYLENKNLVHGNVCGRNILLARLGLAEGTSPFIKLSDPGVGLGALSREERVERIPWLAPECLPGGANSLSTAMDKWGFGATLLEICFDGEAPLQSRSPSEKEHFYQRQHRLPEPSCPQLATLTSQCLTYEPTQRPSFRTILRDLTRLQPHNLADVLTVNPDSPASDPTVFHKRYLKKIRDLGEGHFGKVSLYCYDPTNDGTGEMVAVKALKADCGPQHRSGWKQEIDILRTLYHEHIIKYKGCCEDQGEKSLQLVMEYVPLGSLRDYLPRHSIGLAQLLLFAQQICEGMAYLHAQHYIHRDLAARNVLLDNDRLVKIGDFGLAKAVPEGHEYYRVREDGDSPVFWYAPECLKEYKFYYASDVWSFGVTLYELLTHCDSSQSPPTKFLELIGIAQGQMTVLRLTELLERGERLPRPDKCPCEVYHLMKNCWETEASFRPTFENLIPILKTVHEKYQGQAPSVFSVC
JAK2, sequence (O60674 whole entry): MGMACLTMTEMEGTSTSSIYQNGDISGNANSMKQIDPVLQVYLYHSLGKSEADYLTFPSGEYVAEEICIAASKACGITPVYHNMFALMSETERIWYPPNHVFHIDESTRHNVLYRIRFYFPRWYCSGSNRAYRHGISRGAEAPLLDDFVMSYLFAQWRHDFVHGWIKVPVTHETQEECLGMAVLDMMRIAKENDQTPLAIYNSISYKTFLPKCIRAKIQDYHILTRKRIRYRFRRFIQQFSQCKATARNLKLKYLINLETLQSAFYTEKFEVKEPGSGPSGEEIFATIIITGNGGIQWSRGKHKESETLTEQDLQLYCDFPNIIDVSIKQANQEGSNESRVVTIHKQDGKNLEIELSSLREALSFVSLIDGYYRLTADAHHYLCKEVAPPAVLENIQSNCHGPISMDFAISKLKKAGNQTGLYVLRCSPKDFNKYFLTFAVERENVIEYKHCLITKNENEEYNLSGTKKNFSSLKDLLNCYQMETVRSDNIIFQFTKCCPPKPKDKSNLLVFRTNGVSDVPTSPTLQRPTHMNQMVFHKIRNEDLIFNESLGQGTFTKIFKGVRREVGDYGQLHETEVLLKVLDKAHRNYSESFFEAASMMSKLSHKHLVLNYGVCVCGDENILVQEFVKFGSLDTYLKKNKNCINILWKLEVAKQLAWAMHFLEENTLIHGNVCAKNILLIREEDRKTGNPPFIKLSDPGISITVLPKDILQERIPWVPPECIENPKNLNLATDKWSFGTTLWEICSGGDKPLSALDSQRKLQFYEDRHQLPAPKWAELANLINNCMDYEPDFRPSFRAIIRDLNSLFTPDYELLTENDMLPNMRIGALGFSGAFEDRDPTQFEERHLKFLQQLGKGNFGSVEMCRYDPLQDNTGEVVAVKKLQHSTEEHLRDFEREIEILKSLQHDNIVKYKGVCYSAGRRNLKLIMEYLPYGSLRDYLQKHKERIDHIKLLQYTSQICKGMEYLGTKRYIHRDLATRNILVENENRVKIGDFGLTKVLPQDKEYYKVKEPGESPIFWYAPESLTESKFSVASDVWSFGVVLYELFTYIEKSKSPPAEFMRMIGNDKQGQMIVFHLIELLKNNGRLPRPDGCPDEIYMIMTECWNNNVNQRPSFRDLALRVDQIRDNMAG
JAK1, sequence (P23458 whole entry): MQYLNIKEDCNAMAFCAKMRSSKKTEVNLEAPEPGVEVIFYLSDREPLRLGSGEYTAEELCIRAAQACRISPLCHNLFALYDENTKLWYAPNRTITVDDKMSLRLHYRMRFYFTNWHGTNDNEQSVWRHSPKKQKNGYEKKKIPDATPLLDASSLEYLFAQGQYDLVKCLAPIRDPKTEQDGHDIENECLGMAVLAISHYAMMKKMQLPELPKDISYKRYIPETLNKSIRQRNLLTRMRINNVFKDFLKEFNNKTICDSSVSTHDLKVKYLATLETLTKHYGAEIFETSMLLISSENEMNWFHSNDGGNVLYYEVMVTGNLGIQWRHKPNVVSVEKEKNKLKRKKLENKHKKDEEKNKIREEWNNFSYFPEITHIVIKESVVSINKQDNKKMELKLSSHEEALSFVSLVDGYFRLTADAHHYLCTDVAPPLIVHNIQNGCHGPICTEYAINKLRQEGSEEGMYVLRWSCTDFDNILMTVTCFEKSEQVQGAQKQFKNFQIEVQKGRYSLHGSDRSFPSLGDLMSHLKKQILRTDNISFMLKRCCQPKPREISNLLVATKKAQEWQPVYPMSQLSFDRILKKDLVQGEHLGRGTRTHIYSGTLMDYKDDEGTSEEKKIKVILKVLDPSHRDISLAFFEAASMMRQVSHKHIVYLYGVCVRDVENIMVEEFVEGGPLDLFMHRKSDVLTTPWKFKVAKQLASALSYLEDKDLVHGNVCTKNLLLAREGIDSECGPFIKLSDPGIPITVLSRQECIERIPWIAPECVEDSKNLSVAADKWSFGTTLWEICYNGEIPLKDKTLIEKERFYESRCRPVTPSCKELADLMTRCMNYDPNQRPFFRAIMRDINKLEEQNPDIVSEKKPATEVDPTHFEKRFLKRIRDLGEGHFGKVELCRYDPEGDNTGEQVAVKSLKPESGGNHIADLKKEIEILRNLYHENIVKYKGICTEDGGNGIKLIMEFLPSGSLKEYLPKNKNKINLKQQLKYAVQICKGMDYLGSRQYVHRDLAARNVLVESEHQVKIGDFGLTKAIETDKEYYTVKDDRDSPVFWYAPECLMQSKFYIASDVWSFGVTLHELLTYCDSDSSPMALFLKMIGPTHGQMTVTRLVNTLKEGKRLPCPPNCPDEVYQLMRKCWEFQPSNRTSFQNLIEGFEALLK

In assay [1] (ATP concentration Km), `CN1CCN(C2CCN(c3ccc(Nc4ncc(Cl)c(O[C@H]5CO[C@H]6[C@@H]5OC[C@H]6O)n4)cc3Cl)CC2)CC1` [LS 3-96] had an IC50 of 8.16 µM.
The same measure, in the same setting: the same measure for `CN1CCN(C2CCN(c3ccc(Nc4ncc(Cl)c(O[C@@H]5CO[C@H]6[C@@H]5OC[C@@H]6O)n4)cc3Cl)CC2)CC1` [LS 4-97]: 0.406 µM.
As to `COc1cc(N2CCC(N3CCN(C)CC3)CC2)ccc1Nc1ncc(Cl)c(O[C@H]2CO[C@H]3[C@@H]2OC[C@H]3O)n1` [LS 4-100], in assay [2] (ATP concentration Km, in μM), the IC50 was more than 10 µM.
On to `COc1cc(Nc2ncc(Cl)c(O[C@H]3CO[C@H]4[C@@H]3OC[C@H]4O)n2)ccc1N1CCN(C)CC1` [LS 4-106], for which the IC50 in assay [2] (ATP concentration Km) is 0.638 µM.
On the same count and under the same terms, the same measure for `CN1CCN(c2ccc(Nc3ncc(Cl)c(O[C@@H]4CO[C@H]5[C@@H]4OC[C@H]5O)n3)cc2Cl)CC1` [LS 4-142]: 0.0495 µM.
Still for that read-out and setting: to `CN1CCN(c2ccc(Nc3ncc(Cl)c(O[C@@H]4CO[C@H]5[C@@H]4OC[C@H]5O)n3)cc2)CC1` [LS 4-144] belongs 0.0848 µM; to `CN1CCN(C2CCN(c3ccc(Nc4ncc(Cl)c(O[C@@H]5CO[C@H]6[C@@H]5OC[C@H]6O)n4)c(Cl)c3)CC2)CC1` [LS 4-148], 6.47 µM.
Same read-out and setting: the same measure for `Cc1cc(Nc2ncc(Cl)c(O[C@@H]3CO[C@H]4[C@@H]3OC[C@H]4O)n2)cnc1N1CCC(N2CCN(C)CC2)CC1` [LS 4-150]: 0.084 µM.
On to `CN1CCN(C2CCN(c3c(Cl)cc(Nc4ncc(Cl)c(O[C@@H]5CO[C@H]6[C@@H]5OC[C@H]6O)n4)cc3Cl)CC2)CC1` [LS 5-16], for which the IC50 in assay [3] stood at 0.354 µM; in assay [1] (ATP concentration Km), 0.949 µM; in assay [2] (ATP concentration Km), 0.141 µM.
Take `CCN1CCN(Cc2ccc(Nc3ncc(Cl)c(O[C@@H]4CO[C@H]5[C@@H]4OC[C@H]5O)n3)nc2)CC1` [LS 5-54]: the IC50 in assay [3] (in μM) was more than 10 µM; in assay [1] (ATP concentration Km, in μM), more than 10 µM; in assay [2] (ATP concentration Km), 5.75 µM.
Regarding `N#CC1(c2ccc(Nc3ncc(Cl)c(O[C@@H]4CO[C@H]5[C@@H]4OC[C@H]5O)n3)cc2)CCCC1` [LS 5-58], the IC50 in assay [3] turned out to be 0.161 µM; in assay [1] (ATP concentration Km), 0.67 µM; in assay [2] (ATP concentration Km), 0.12 µM.
For `C=CC(=O)Nc1cc(Nc2ncc(C)c(O[C@@H]3CO[C@H]4[C@@H]3OC[C@H]4O)n2)ccc1N1CCC(N2CCN(C)CC2)CC1` [LS 5-133, N-(5-((4-(((3R,3aR,6R, 6aR)-6-hydroxyhexahydrofurano[3,2-b]furan-3-yl)oxygen)-5-methylpyrimidin-2-yl)amino)-2-(4-(4-methylpiperazin-1-yl)piperidin-1-yl)phenyl) acrylamide], the IC50 in assay [3] came out at 0.685 µM; in assay [1] (ATP concentration Km) it was 0.417 µM; in assay [4] it was 313 nM; in assay [2] (ATP concentration Km) it was 0.00634 µM.
With `C=CC(=O)Nc1cc(Nc2ncc(Cl)c(O[C@@H]3CO[C@H]4[C@@H]3OC[C@H]4OC)n2)ccc1N1CCOCC1` [LS 6-48], the IC50 in assay [3] was found to be 2.75 µM; in assay [1] (ATP concentration Km) it was 1.13 µM; in assay [4] it was 637 nM; in assay [2] (ATP concentration 1 mM), 0.0261 µM; in assay [2] (ATP concentration Km), 0.00387 µM; in assay [5] (Homo sapiens, U-937, 72 hours), 403 nM. Further, the IC50 in assay [6] (Homo sapiens, K562, 72 hours) worked out at 1550 nM.
Regarding `C=CC(=O)Nc1cc(Nc2ncc(Cl)c(O[C@@H]3CO[C@H]4[C@@H]3OC[C@H]4OC)n2)ccc1N1CCN(C)[C@@H](C)C1` [LS 6-49], the IC50 in assay [3] stood at 4.69 µM; in assay [1] (ATP concentration Km), 1.1 µM; in assay [4], 1190 nM; in assay [2] (ATP concentration 1 mM), 0.00292 µM; in assay [2] (ATP concentration Km), 0.0017 µM; in assay [5] (Homo sapiens, U-937, 72 hours) it was 79.4 nM. For the same compound, in assay [6] (Homo sapiens, K562, 72 hours), the IC50 was determined as 371 nM. Also, the “JAK3 kinase inhibitory activity and selectivity (in words)” value in assay [2] was “strong and selective JAK3 kinase inhibitory activity”.
`C=CC(=O)Nc1cc(Nc2ncc(Cl)c(O[C@@H]3CO[C@H]4[C@@H]3OC[C@@H]4F)n2)ccc1N1CCC(N2CCN(C)CC2)CC1` [LS 6-59]: the IC50 is 7.04 µM in assay [3]; 1.08 µM in assay [1]; 435 nM in assay [4]; 129 nM in assay [5] (72 hours); 281 nM in assay [6] (72 hours).
For the compound `C=CC(=O)Nc1cc(Nc2ncc(Cl)c(O[C@@H]3CO[C@H]4[C@@H]3OC[C@@H]4F)n2)ccc1N(C)CCN(C)C` [LS 6-77], the IC50 came to 33.9 µM in assay [3]; 2.47 µM in assay [1] (ATP concentration Km); 921 nM in assay [4]; 0.00155 µM in assay [2] (ATP concentration 1 mM); 0.00128 µM in assay [2] (ATP concentration Km); 40.7 nM in assay [5] (Homo sapiens, U-937, 72 hours). In addition, the IC50 in assay [6] (Homo sapiens, K562, 72 hours) was found to be 906 nM. Besides, in assay [2], the “JAK3 kinase inhibitory activity and selectivity (in words)” value was “strong and selective JAK3 kinase inhibitory activity”.
`C=CC(=O)Nc1cc(Nc2ncc(Cl)c(O[C@@H]3CO[C@H]4[C@@H]3OC[C@@H]4F)n2)ccc1N1CCN(CC)CC1` [LS 6-78]: the IC50 in assay [3] came out at 12.6 µM; in assay [1] (ATP concentration Km), 1.67 µM; in assay [4], 912 nM; in assay [2] (ATP concentration 1 mM), 0.00714 µM; in assay [2] (ATP concentration Km), 0.00402 µM; in assay [5] (Homo sapiens, U-937, 72 hours), 146 nM. Besides, in assay [6] (Homo sapiens, K562, 72 hours), the IC50 came out at 525 nM.
On to `C=CC(=O)Nc1cc(Nc2ncc(Cl)c(O[C@@H]3CO[C@H]4[C@@H]3OC[C@H]4F)n2)ccc1N(C)CCN(C)C` [LS 6-88], for which the IC50 in assay [3] was 87.1 µM; in assay [1], 1.72 µM; in assay [4], 930 nM; in assay [2] it was 0.00135 µM and 0.00153 µM; in assay [5] (72 hours) it was 50.3 nM; in assay [6] (72 hours) it was 410 nM. For the same compound, the “JAK3 kinase inhibitory activity and selectivity (in words)” value in assay [2] is “strong and selective JAK3 kinase inhibitory activity”.
`C=CC(=O)Nc1cc(Nc2ncc(Cl)c(O[C@@H]3CO[C@H]4[C@@H]3OC[C@H]4F)n2)ccc1N1CCN(CC)CC1` [LS 6-89]: the IC50 turned out to be 15.6 µM in assay [3]; 1.71 µM in assay [1] (ATP concentration Km); 805 nM in assay [4]; 0.00654 µM in assay [2] (ATP concentration 1 mM); 0.00426 µM in assay [2] (ATP concentration Km); 171 nM in assay [5] (Homo sapiens, U-937, 72 hours). The IC50 in assay [6] (Homo sapiens, K562, 72 hours) worked out at 620 nM.
For `C=CC(=O)Nc1cc(Nc2ncc(Cl)c(O[C@@H]3CO[C@H]4[C@@H]3OCC4(F)F)n2)ccc1N(C)CCN(C)C` [LS 6-105], the IC50 in assay [3] is 4.22 µM; in assay [1] it was 0.589 µM; in assay [4] it was 272 nM; in assay [2], 0.00113 µM and 0.00132 µM; in assay [5] (72 hours), 33.8 nM; in assay [6] (72 hours), 345 nM. In addition, the “JAK3 kinase inhibitory activity and selectivity (in words)” value in assay [2] is “strong and selective JAK3 kinase inhibitory activity”.
As for `C=CC(=O)Nc1cc(Nc2ncc(Cl)c(O[C@@H]3CO[C@@H]4CCO[C@@H]43)n2)ccc1N(C)CCN(C)C` [LS 6-121], the IC50 in assay [3] was 2.93 µM; in assay [1], 1.06 µM; in assay [4], 278 nM; in assay [2], 0.0014 µM and 0.0016 µM; in assay [5] (72 hours) it was 31.3 nM. In addition, the “JAK3 kinase inhibitory activity and selectivity (in words)” value in assay [2] was “strong and selective JAK3 kinase inhibitory activity”.
`C=CC(=O)Nc1cc(Nc2ncc(Cl)c(O[C@@H]3CO[C@H]4[C@@H]3OC[C@H]4OCC)n2)ccc1N(C)CCN(C)C` [LS 7-13]: the IC50 is 8.6 µM in assay [3]; 1.89 µM in assay [1] (ATP concentration Km); 1660 nM in assay [4]; 0.0019 µM in assay [2] (ATP concentration 1 mM); 0.0013 µM in assay [2] (ATP concentration Km); 29.9 nM in assay [5] (Homo sapiens, U-937, 72 hours). In addition, the “JAK3 kinase inhibitory activity and selectivity (in words)” value in assay [2] was “strong and selective JAK3 kinase inhibitory activity”.
As to `C=CC(=O)Nc1cc(Nc2ncc(Cl)c(O[C@@H]3CO[C@H]4[C@@H]3OC[C@H]4OC(C)C)n2)ccc1N(C)CCN(C)C` [LS 7-18], the IC50 in assay [3] (in μM) is more than 10 µM; in assay [1] (ATP concentration Km) it was 2.66 µM; in assay [4], 4420 nM; in assay [2] (ATP concentration 1 mM), 0.0023 µM; in assay [2] (ATP concentration Km), 0.0015 µM; in assay [5] (Homo sapiens, U-937, 72 hours), 44 nM. The “JAK3 kinase inhibitory activity and selectivity (in words)” value in assay [2] was “strong and selective JAK3 kinase inhibitory activity”.
